Molecules are shown by their SMILES.

In one assay the target is CDK2 (human) (UniProt P24941). The assay can be described thus: Cell-Based Assay.
A further assay concerns the target CDK2 (UniProt P24941). The assay can be described thus: Enzyme Assay.

The term IC50 denotes the concentration that inhibits the measured activity by half. Low readings indicate greater potency in that assay, high ones weaker potency in that assay. As to `Cc1[nH]nc2c1N=C(c1ccccc1Cl)c1cc(NS(C)(=O)=O)ccc1N2`, the IC50 on CDK2 (human) (mda-mb-435) and against CDK2 (human) (sw480) was 0.01 to 1 µM each time.

Regarding `Cc1cccc(-c2[nH]nc3c2N=C(c2ccccc2Cl)c2cc([N+](=O)[O-])ccc2N3)c1`, the IC50 against CDK2 is 1 to 9.99 µM.

`COc1ccccc1-c1[nH]nc2c1N=C(c1ccccc1Cl)c1cc([N+](=O)[O-])ccc1N2` showed an IC50 against CDK2 of 10 to 30 µM.

Turning to `O=[N+]([O-])c1ccc2c(c1)C(c1ccccc1)=Nc1c(n[nH]c1C1CC1)N2`, the IC50 on CDK2 (human) (hct 116) is 10 to 30 µM.

Regarding `Cn1cccc1-c1[nH]nc2c1N=C(c1ccccc1Cl)c1cc([N+](=O)[O-])ccc1N2`, at CDK2, the IC50 was in the range of 1 to 9.99 µM.

Turning to `O=[N+]([O-])c1ccc2c(c1)C(c1ccccc1Cl)=Nc1c(n[nH]c1-c1ccc3ccccc3c1)N2`, at CDK2, the IC50 was 1 to 9.99 µM.

In the case of `Cc1[nH]nc2c1N=C(c1ccccc1Cl)c1ccccc1N2`, the IC50 at CDK2 (human) (mda-mb-435) and against CDK2 (human) (sw480) was 1.1 to 9.99 µM throughout.

For the compound `O=[N+]([O-])c1ccc2c(c1)C(c1ccccc1Cl)=Nc1c(n[nH]c1-c1cccc3ccccc13)N2`, the IC50 at CDK2 (human) (hct 116) and against CDK2 (human) (sw480) was 10 to 30 µM throughout.

Regarding `Fc1ccccc1C1=Nc2c[nH]nc2Nc2ccc(Cl)cc21`, at CDK2, the IC50 was in the range of 1 to 9.99 µM.

In turn, `COc1cc(O)ccc1-c1[nH]nc2c1N=C(c1ccccc1Cl)c1cc([N+](=O)[O-])ccc1N2` had an IC50 at CDK2 (human) (hct 116) of 10 to 30 µM.

In turn, `O=[N+]([O-])c1ccc2c(c1)C(c1ccccc1Cl)=Nc1c(n[nH]c1-c1ccc(OC(F)(F)F)cc1)N2` gave an IC50 at CDK2 (human) (hct 116) of 10 to 30 µM.

As for `O=[N+]([O-])c1ccc2c(c1)C(c1ccccc1Cl)=Nc1c(n[nH]c1-c1ccccc1)N2`, the IC50 on CDK2 (human) (hct 116) and against CDK2 (human) (sw480) was 10 to 30 µM in each case.

As for `Cc1[nH]nc2c1N=C(c1ccccc1Cl)c1cc(NS(=O)(=O)N3CCOCC3)ccc1N2`, the IC50 on CDK2 (human) (mda-mb-435) and on CDK2 (human) (sw480) was 1.1 to 9.99 µM in each case.

On CDK2 (human) (sw480), `Cc1[nH]nc2c1N=C(c1ccccc1F)c1cc(F)ccc1N2` registered an IC50 of 0.01 to 1 µM.

On to `O=[N+]([O-])c1ccc2c(c1)C(c1ccccc1Cl)=Nc1c[nH]nc1N2`, for which the half-maximal inhibitory concentration (IC50) lay in the range of 10 to 30 µM against CDK2 (human) (hct 116), 10 to 30 µM on CDK2 (human) (mda-mb-435) and 1.1 to 9.99 µM at CDK2 (human) (sw480).

With `Cc1[nH]nc2c1N=C(c1ccccc1)c1cc(F)ccc1N2`, the IC50 against CDK2 (human) (mda-mb-435) is 0.01 to 1 µM; against CDK2 (human) (sw480) it was 1.1 to 9.99 µM.

In turn, `CN(C)Cc1[nH]nc2c1N=C(c1ccccc1Cl)c1cc([N+](=O)[O-])ccc1N2` came in with an IC50 against CDK2 (human) (mda-mb-435) of 10 to 30 µM.

On to `O=[N+]([O-])c1ccc2c(c1)C(c1ccccc1F)=Nc1c[nH]nc1N2`, for which the IC50 at CDK2 (human) (hct 116) fell in the range of 10 to 30 µM; against CDK2 (human) (mda-mb-435) it was 10 to 30 µM; at CDK2 (human) (sw480), 1.1 to 9.99 µM.

Regarding `COc1ccc2c(c1)C(c1ccccc1Cl)=Nc1c(n[nH]c1C)N2`, the IC50 against CDK2 (human) (mda-mb-435) and against CDK2 (human) (sw480) was 1.1 to 9.99 µM each time.

As to `CC(C)c1[nH]nc2c1N=C(c1ccccc1Cl)c1cc(N)ccc1N2`, the IC50 against CDK2 (human) (mda-mb-435) is 1.1 to 9.99 µM.

As to `Clc1ccccc1C1=Nc2c[nH]nc2Nc2ccccc21`, the IC50 against CDK2 (human) (hct 116) and against CDK2 (human) (sw480) was 10 to 30 µM throughout.

As for `Cc1[nH]nc2c1N=C(c1ccccc1F)c1cc(C(=O)N3CCOCC3)ccc1N2`, the IC50 against CDK2 (human) (mda-mb-435) fell in the range of 1.1 to 9.99 µM; at CDK2 (human) (sw480), 0.01 to 1 µM.

`O=[N+]([O-])c1ccc2c(c1)C(c1ccccc1Cl)=Nc1c(n[nH]c1-c1cc[nH]n1)N2` yielded an IC50 at CDK2 (human) (mda-mb-435) of 1.1 to 9.99 µM.

For `Cc1[nH]nc2c1N=C(c1ccccc1Cl)c1cc([N+](=O)[O-])ccc1N2`, the IC50 against CDK2 (human) (hct 116), against CDK2 (human) (mda-mb-435) and at CDK2 (human) (sw480) was 0.01 to 1 µM each time.

As for `C=Cc1[nH]nc2c1N=C(c1ccccc1Cl)c1cc([N+](=O)[O-])ccc1N2`, the IC50 at CDK2 (human) (mda-mb-435) is 0.01 to 1 µM.

Consider `Cc1cn[nH]c1-c1[nH]nc2c1N=C(c1ccccc1Cl)c1cc([N+](=O)[O-])ccc1N2`, for which the figures for the IC50 on CDK2 (human) (hct 116), on CDK2 (human) (mda-mb-435) and on CDK2 (human) (sw480) were 1.1 to 9.99 µM, 1.1 to 9.99 µM and 0.01 to 1 µM, respectively.

In turn, `Cc1[nH]nc2c1N=C(c1ccccc1C(F)(F)F)c1cc([N+](=O)[O-])ccc1N2` gave an IC50 against CDK2 (human) (sw480) of 0.01 to 1 µM.

For `CCc1[nH]nc2c1N=C(c1ccccc1Cl)c1cc([N+](=O)[O-])ccc1N2`, the IC50 against CDK2 (human) (hct 116), on CDK2 (human) (mda-mb-435) and against CDK2 (human) (sw480) was 0.01 to 1 µM in each case.

`CCOC(=O)c1ccc2c(c1)C(c1ccccc1F)=Nc1c(n[nH]c1C)N2`: the IC50 against CDK2 (human) (hct 116), against CDK2 (human) (mda-mb-435) and against CDK2 (human) (sw480) was 1.1 to 9.99 µM in each case.

As for `CCCc1[nH]nc2c1N=C(c1ccccc1Cl)c1cc([N+](=O)[O-])ccc1N2`, the IC50 at CDK2 (human) (hct 116), on CDK2 (human) (mda-mb-435) and against CDK2 (human) (sw480) was 10 to 30 µM throughout.

At CDK2 (human) (mda-mb-435), `O=[N+]([O-])c1ccc2c(c1)C(c1ccccc1Cl)=Nc1c(n[nH]c1-c1c[nH]cn1)N2` showed an IC50 of 1.1 to 9.99 µM.

`O=[N+]([O-])c1ccc2c(c1)C(c1ccccc1Cl)=Nc1c(n[nH]c1-c1ccncc1)N2`: the IC50 against CDK2 (human) (hct 116) and against CDK2 (human) (sw480) was 10 to 30 µM in each case.

For the compound `Cc1[nH]nc2c1N=C(c1ccccc1Cl)c1cc(NS(=O)(=O)NCCl)ccc1N2`, the IC50 on CDK2 (human) (mda-mb-435) and on CDK2 (human) (sw480) was 1.1 to 9.99 µM each time.

Turning to `O=[N+]([O-])c1ccc2c(c1)C(c1ccccc1Cl)=Nc1c(n[nH]c1C1CC1)N2`, the IC50 was in the range of 1.1 to 9.99 µM on CDK2 (human) (hct 116), 0.01 to 1 µM at CDK2 (human) (mda-mb-435) and 1.1 to 9.99 µM on CDK2 (human) (sw480).

(Values after the Kinase Knowledgebase extract (Sharma et al. 2016).)
